Active and inactive are the calls of the source. The calls are words filed in the database; no cut-off is given here.
Tests used:
Pseudomonas aeruginosa [1] = assay: Antibacterial activity against Pseudomonas aeruginosa at 10 mg/ml after 24 hrs by disc diffusion method; assay type: functional, organism-based
[2] = test system: Schwanniomyces occidentalis; assay: Antifungal activity against Schwanniomyces occidentalis at 10 mg/ml after 48 hrs by disc diffusion method; assay type: functional, organism-based
Photorhabdus luminescens [3] = assay: Antibacterial activity against Photorhabdus luminescens at 10 mg/ml after 24 hrs by disc diffusion method; assay type: functional, organism-based
Escherichia coli [4] = assay: Antibacterial activity against Escherichia coli at 10 mg/ml after 24 hrs by disc diffusion method; assay type: functional, organism-based
Micrococcus lylae [5] = assay: Antibacterial activity against Micrococcus lylae at 10 mg/ml after 24 hrs by disc diffusion method; assay type: functional, organism-based
Salmonella paratyphi [6] = assay: Antibacterial activity against Salmonella paratyphi at 10 mg/ml after 24 hrs by disc diffusion method; assay type: functional, organism-based; details: Salmonella enterica subsp. enterica serovar Paratyphi A
Staphylococcus aureus [7] = assay: Antibacterial activity against Staphylococcus aureus at 6.25 to 200 ug/ml after 24 hrs by microwell dilution assay; assay type: functional, organism-based
Photorhabdus luminescens [8] = assay: Antibacterial activity against Photorhabdus luminescens at 6.25 to 200 ug/ml after 24 hrs by microwell dilution method; assay type: functional, organism-based
Staphylococcus aureus [9] = assay: Antibacterial activity against Staphylococcus aureus at 10 mg/ml after 24 hrs by disc diffusion method; assay type: functional
Micrococcus luteus [10] = assay: Antibacterial activity against Micrococcus luteus at 6.25 to 200 ug/ml after 24 hrs by microwell dilution method; assay type: functional, organism-based
Klebsiella aerogenes [11] = assay: Antibacterial activity against Enterobacter aerogenes at 6.25 to 200 ug/ml after 24 hrs by microwell dilution method; assay type: functional, organism-based
Candida tropicalis = assay: Antifungal activity against Candida tropicalis at 10 mg/ml after 48 hrs by disc diffusion method; assay type: functional, organism-based
Micrococcus lylae [12] = assay: Antibacterial activity against Micrococcus lylae at 6.25 to 200 ug/ml after 24 hrs by microwell dilution method; assay type: functional, organism-based
Aspergillus = assay: Antifungal activity against Aspergillus at 10 mg/ml after 72 hrs by disc diffusion method; assay type: functional, organism-based
Pseudomonas aeruginosa [13] = assay: Antibacterial activity against Pseudomonas aeruginosa at 6.25 to 200 ug/ml after 24 hrs by microwell dilution method; assay type: functional, organism-based
[14] = test system: Acinetobacter radioresistens; assay: Antibacterial activity against Acinetobacter radioresistens at 6.25 to 200 ug/ml after 24 hrs by microwell dilution method; assay type: functional, organism-based
Pichia membranifaciens = assay: Antifungal activity against Pichia membranifaciens at 10 mg/ml after 48 hrs by disc diffusion method; assay type: functional, organism-based
Staphylococcus cohnii [15] = assay: Antibacterial activity against Staphylococcus cohnii at 6.25 to 200 ug/ml after 24 hrs by microwell dilution assay; assay type: functional, organism-based
Salmonella paratyphi [16] = assay: Antibacterial activity against Salmonella paratyphi at 6.25 to 200 ug/ml after 24 hrs by microwell dilution method; assay type: functional, organism-based; details: Salmonella enterica subsp. enterica serovar Paratyphi A
Candida parapsilosis = assay: Antifungal activity against Candida parapsilosis at 10 mg/ml after 48 hrs by disc diffusion method; assay type: functional, organism-based
[17] = test system: Acinetobacter radioresistens; assay: Antibacterial activity against Acinetobacter radioresistens at 10 mg/ml after 24 hrs by disc diffusion method; assay type: functional, organism-based
Hepacivirus hominis = assay: Inhibition of HCV N-terminal His-tagged NS5B RNA dependent RNA polymerase expressed in Escherichia coli DH5alpha using poly rA/U12 as primer at 200 uM after 60 mins by liquid scintillation counting
Proteus vulgaris [18] = assay: Antibacterial activity against Proteus vulgaris at 6.25 to 200 ug/ml after 24 hrs by microwell dilution method; assay type: functional, organism-based
Nakaseomyces glabratus = assay: Antifungal activity against Candida glabrata at 10 mg/ml after 48 hrs by disc diffusion method; assay type: functional, organism-based
Staphylococcus cohnii [19] = assay: Antibacterial activity against Staphylococcus cohnii at 10 mg/ml after 24 hrs by disc diffusion method; assay type: functional
Klebsiella aerogenes [20] = assay: Antibacterial activity against Enterobacter aerogenes at 10 mg/ml after 24 hrs by disc diffusion method; assay type: functional, organism-based
Micrococcus luteus [21] = assay: Antibacterial activity against Micrococcus luteus at 10 mg/ml after 24 hrs by disc diffusion method; assay type: functional, organism-based
Escherichia coli [22] = assay: Antibacterial activity against Escherichia coli at 6.25 to 200 ug/ml after 24 hrs by microwell dilution method; assay type: functional, organism-based
Kluyveromyces marxianus = assay: Antifungal activity against Kluyveromyces marxianus at 10 mg/ml after 48 hrs by disc diffusion method; assay type: functional, organism-based
Proteus vulgaris [23] = assay: Antibacterial activity against Proteus vulgaris at 10 mg/ml after 24 hrs by disc diffusion method; assay type: functional, organism-based
Candida albicans = assay: Antifungal activity against Candida albicans at 10 mg/ml after 48 hrs by disc diffusion method; assay type: functional, organism-based

Row | Compound | Activity (Pseudomonas aeruginosa [1]) | Activity [2] | Activity (Photorhabdus luminescens [3]) | Activity (Escherichia coli [4]) | Activity (Micrococcus lylae [5]) | Activity (Salmonella paratyphi [6]) | Activity (Staphylococcus aureus [7]) | Activity (Photorhabdus luminescens [8]) | Activity (Staphylococcus aureus [9]) | Activity (Micrococcus luteus [10]) | Activity (Klebsiella aerogenes [11]) | Activity (Candida tropicalis) | Activity (Micrococcus lylae [12]) | Activity (Aspergillus) | Activity (Pseudomonas aeruginosa [13]) | Activity [14] | Activity (Pichia membranifaciens) | Activity (Staphylococcus cohnii [15]) | Activity (Salmonella paratyphi [16]) | Activity (Candida parapsilosis) | other results
1 | CC(C(=O)N/N=C/c1cccc(F)c1)c1ccc(-c2ccccc2)c(F)c1 (configuration not stated) | inactive | inactive | inactive | inactive | inactive | inactive | inactive | inactive | inactive | inactive | inactive | inactive | inactive | inactive | inactive | inactive | inactive | inactive | inactive | inactive | Activity [17]: inactive; inhibition (Hepacivirus hominis): 8%; Activity (Proteus vulgaris [18]): inactive; Activity (Nakaseomyces glabratus): inactive; Activity (Staphylococcus cohnii [19]): inactive; Activity (Klebsiella aerogenes [20]): inactive; Activity (Micrococcus luteus [21]): inactive; Activity (Escherichia coli [22]): inactive; Activity (Kluyveromyces marxianus): inactive; Activity (Proteus vulgaris [23]): inactive; Activity (Candida albicans): inactive
2 | CCCCNC(=S)NNC(=O)C(C)c1ccc(-c2ccccc2)c(F)c1 (configuration not stated) | inactive | inactive | inactive | inactive | inactive | inactive | inactive | inactive | inactive | inactive | inactive | inactive | inactive | inactive | inactive | inactive | inactive | inactive | inactive | inactive | Activity [17]: inactive; inhibition (Hepacivirus hominis): 70%; Activity (Proteus vulgaris [18]): inactive; Activity (Nakaseomyces glabratus): inactive; Activity (Staphylococcus cohnii [19]): inactive; Activity (Klebsiella aerogenes [20]): inactive; Activity (Micrococcus luteus [21]): inactive; Activity (Escherichia coli [22]): inactive; Activity (Kluyveromyces marxianus): inactive; Activity (Proteus vulgaris [23]): inactive; Activity (Candida albicans): inactive
3 | Cc1cc(C)c(/C=N/NC(=O)C(C)c2ccc(-c3ccccc3)c(F)c2)c(C)c1 (configuration not stated) | inactive | inactive | inactive | inactive | inactive | inactive | inactive | inactive | inactive | inactive | inactive | inactive | inactive | inactive | inactive | inactive | inactive | inactive | inactive | inactive | Activity [17]: inactive; inhibition (Hepacivirus hominis): 8%; Activity (Proteus vulgaris [18]): inactive; Activity (Nakaseomyces glabratus): inactive; Activity (Staphylococcus cohnii [19]): inactive; Activity (Klebsiella aerogenes [20]): inactive; Activity (Micrococcus luteus [21]): inactive; Activity (Escherichia coli [22]): inactive; Activity (Kluyveromyces marxianus): inactive; Activity (Proteus vulgaris [23]): inactive; Activity (Candida albicans): inactive
4 | C=CCNC(=S)NNC(=O)C(C)c1ccc(-c2ccccc2)c(F)c1 (configuration not stated) | inactive | inactive | inactive | inactive | inactive | inactive | inactive | inactive | inactive | inactive | inactive | inactive | inactive | inactive | inactive | inactive | inactive | inactive | inactive | inactive | Activity [17]: inactive; inhibition (Hepacivirus hominis): 8%; Activity (Proteus vulgaris [18]): inactive; Activity (Nakaseomyces glabratus): inactive; Activity (Staphylococcus cohnii [19]): inactive; Activity (Klebsiella aerogenes [20]): inactive; Activity (Micrococcus luteus [21]): inactive; Activity (Escherichia coli [22]): inactive; Activity (Kluyveromyces marxianus): inactive; Activity (Proteus vulgaris [23]): inactive; Activity (Candida albicans): inactive
5 | CC(C(=O)N/N=C1\SCC(=O)N1Cc1ccccc1)c1ccc(-c2ccccc2)c(F)c1 (configuration not stated) | inactive | inactive | inactive | inactive | inactive | inactive | inactive | inactive | inactive | inactive | inactive | inactive | inactive | inactive | inactive | inactive | inactive | inactive | inactive | inactive | Activity [17]: inactive; inhibition (Hepacivirus hominis): 8%; Activity (Proteus vulgaris [18]): inactive; Activity (Nakaseomyces glabratus): inactive; Activity (Staphylococcus cohnii [19]): inactive; Activity (Klebsiella aerogenes [20]): inactive; Activity (Micrococcus luteus [21]): inactive; Activity (Escherichia coli [22]): inactive; Activity (Kluyveromyces marxianus): inactive; Activity (Proteus vulgaris [23]): inactive; Activity (Candida albicans): inactive
6 | CC(C(=O)N/N=C/c1ccc(Cl)cc1)c1ccc(-c2ccccc2)c(F)c1 (configuration not stated) | inactive | inactive | inactive | inactive | inactive | inactive | inactive | inactive | inactive | inactive | inactive | inactive | inactive | inactive | inactive | inactive | inactive | inactive | inactive | inactive | Activity [17]: inactive; inhibition (Hepacivirus hominis): 8%; Activity (Proteus vulgaris [18]): inactive; Activity (Nakaseomyces glabratus): inactive; Activity (Staphylococcus cohnii [19]): inactive; Activity (Klebsiella aerogenes [20]): inactive; Activity (Micrococcus luteus [21]): inactive; Activity (Escherichia coli [22]): inactive; Activity (Kluyveromyces marxianus): inactive; Activity (Proteus vulgaris [23]): inactive; Activity (Candida albicans): inactive
7 | CC(C(=O)N/N=C/c1ccccc1Cl)c1ccc(-c2ccccc2)c(F)c1 (configuration not stated) | inactive | inactive | inactive | inactive | inactive | inactive | inactive | inactive | inactive | inactive | inactive | inactive | inactive | inactive | inactive | inactive | inactive | inactive | inactive | inactive | Activity [17]: inactive; inhibition (Hepacivirus hominis): 8%; Activity (Proteus vulgaris [18]): inactive; Activity (Nakaseomyces glabratus): inactive; Activity (Staphylococcus cohnii [19]): inactive; Activity (Klebsiella aerogenes [20]): inactive; Activity (Micrococcus luteus [21]): inactive; Activity (Escherichia coli [22]): inactive; Activity (Kluyveromyces marxianus): inactive; Activity (Proteus vulgaris [23]): inactive; Activity (Candida albicans): inactive
